Measurements from patent US20040116656A1, “Memory-enhancing peptides and the use thereof” (priority 2000, published 2004).

Test system: learning and memory process of mouse (memory and learning impediment induced by scopolamine)
Assay: Step-down platform electrical-shock avoidance test of learning and memory (RT, EN) in scopolamine-treated mice
Assay type: in vivo
Settings: for Memory Results EN / Learning Results EN / Memory Results RT / Learning Results RT: scopolamine 1 mg/kg; for Memory Results EN / Memory Results RT: memory test 24 hrs later; for Learning Results EN / Learning Results RT: training trial
Method: The pharmacological tests of memory-enhancing peptide in this invention have been performed as following: the animals have been divided into three groups: drug administration group, control group and model group, with each group administrated with memory-enhancing peptide, saline and scopolamine respectively. In the test, the groups except control group were injected with scopolamine after the administration of medicine about 50 min., 10 min. later, the training began. First, the animals will be put into reaction box for 3 min. before each trails to familiarize them with the environment. Then, the reaction box are charged with 36V alternating current. When the animal subjects to electrical shock, it will jump up to the central platform to avoid harmful stimulation as a normal response. Most of animals may be return to the copper curdles twice or even more times, but they will jump back to the platform swiftly as the results of electrical shock. Each test trail will be performed for 5 min. and two following indices will be used to represent the learning results: (I) the number of total error (EN) during the whole training period; (2) the reaction time (RT) for the first returning to the copper curdle in the trail. The trails will repeat again 24 hrs later as memory test.

| Compound | Memory Results EN (Huperzine A 100 μg/kg) | Learning Results EN (Huperzine A 100 μg/kg, number of total errors) | Effect on memory and learning impediment induced by scopolamine, compared with model group (0.5 μg and 1 μg/kg, longer incubation period and lesser error numbers, P<0.01 vs model group) | Effect on scopolamine-induced memory and learning impediment compared with Huperzine A (0.5 μg/kg and 1 μg/kg versus Huperzine A 100 μg/kg) | Memory Results EN (drug dosage 0.25 μg/kg) | Memory Results RT (drug dosage 0.25 μg/kg) [s] | Learning Results EN (drug dosage 0.25 μg/kg) | Learning Results RT (drug dosage 0.25 μg/kg) [s] | Memory Results EN (drug dosage 0.5 μg/kg) | Memory Results RT (drug dosage 0.5 μg/kg) [s] | Learning Results EN (drug dosage 0.5 μg/kg) | Learning Results RT (drug dosage 0.5 μg/kg) [s] | Memory Results EN (drug dosage 1 μg/kg) | Memory Results RT (drug dosage 1 μg/kg) [s] | Learning Results EN (drug dosage 1 μg/kg) | Learning Results RT (drug dosage 1 μg/kg) [s] | Overall effect on memory and learning impediment induced by scopolamine (results of Table 1) (summary statement, no dose given) |
| --- | --- | --- | --- | --- | --- | --- | --- | --- | --- | --- | --- | --- | --- | --- | --- | --- | --- |
| C/C=C1\[C@H]2C=C(C)C[C@]1(N)c1ccc(=O)[nH]c1C2 [Huperzine A, reference compound] | 0.9 | 1.3 | – | – | – | – | – | – | – | – | – | – | – | – | – | – | – |
| PyroGlu—Asn—Cys(S—Bu^t)—Pro—Arg [MEP-531] | – | – | obviously improve the memory and learning impediment induced by scopolamine | better effects than Huperzine A | 0.9 | 197.6 | 0.3 | 78.8 | 0.5 | 245.5 | 0.2 | 241.6 | 0.3 | 282.8 | 0.3 | 267.6 | remarkably ameliorate the memory and learning impediment induced by scopolamine |
